How the values were obtained:
[1] = tested on: Sweetpotato Whitefly-Crawler (Bemisia Tabaci); assay: Insecticidal test for sweetpotato whitefly-crawler in foliar spray assay (col. BEMITA); format: in vivo; conditions: sweetpotato whitefly-crawler; for pest or weed control at 200 ppm: Bemisia tabaci, read-out: BEMITA 200 ppm (Corrected % Control, rating)
Summary of the method: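 Percent control, Abbott-corrected against diluent-sprayed plants, from microscope counts of live nymphs 8-9 days after treatment. Test solution at 200 ppm in 0.025% aqueous Tween 20 applied to both leaf sides of egg-infested cotton after a 5-6 day hatch period (82° F, 50% RH).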

[2] = tested on: Green Peach Aphid (Myzus Persicae); assay: Insecticidal test for green peach aphid in foliar spray assay (col. MYZUPE); format: in vivo; conditions: green peach aphid; for pest or weed control at 200 ppm: Myzus persicae, 72 h, read-out: MYZUPE 200 ppm (Corrected % Control, rating)
Summary of the method: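 Corrected % control derives from microscope counts of live aphids per plant, treated against diluent-only checks, 3 days after foliar spraying at ~25 °C and 40% RH. Test solution was 200 ppm in 0.025% aqueous Tween 20, applied to both leaf sides of infested cabbage seedlings, four pots each.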

[3] = tested on: Cotton Aphid (Aphis Gossypii); assay: Insecticidal test for cotton aphid in foliar spray assay (col. APHIGO); format: in vivo; conditions: for pest or weed control at 200 ppm: Aphis gossypii, 72 h, read-out: APHIGO 200 ppm (Corrected % Control, rating)
Description: The compounds were tested against cotton aphid, green peach aphid, and sweet potato whitefly using procedures described in the following examples and reported in Table 2.
In each case of Table 2, the rating scale is as follows at 200 ppm.
Insecticidal Test for Cotton Aphid (Aphis Gossypii) in Foliar Spray Assay
Squash or cotton seedlings with fully expanded cotyledon leaves were trimmed to one cotyledon per plant and infested with cotton aphid (wingless adult and nymph) one day prior to chemical application. Each plant was examined before chemical application to ensure uniform infestation (ca. 30-70 aphids per plant). Compounds (2 mg) were dissolved in 2 mL of acetone/methanol (1:1) solvent, forming stock solutions of 1000 ppm. The stock solutions were diluted 5× with 0.025% Tween 20 in H2O to obtain a solution at 200 ppm. A hand-held Devilbiss aspirator type sprayer was used to apply the spray solutions until runoff to both sides of the squash cotyledon leaves. Four plants (4 replications) were used for each concentration of each compound. Reference plants (solvent check) were sprayed with the diluent only. Treated plants were held in a holding room for three days at approximately 25° C. and 40% RH before the number of live aphids on each plant was recorded. Insecticidal activity was measured by Corrected % Control using Abbott's correction formula and presented in Table 2 (see col. “APHIGO”): Corrected % Control=100*(X−Y)/X • where X=No. of live aphids on solvent check plants • Y=No. of live aphids on treated plants

Row | SMILES | pest or weed control at 200 ppm [1] [%] | pest or weed control at 200 ppm [2] [%] | pest or weed control at 200 ppm [3] [%] | BEMITA 200 ppm (Corrected % Control, rating) [1] | MYZUPE 200 ppm (Corrected % Control, rating) [2] | APHIGO 200 ppm (Corrected % Control, rating) [3] | melting point [°C]
1 | CSCC(C)C(=O)N(C)c1sc(-c2cncc(F)c2)nc1Cl (stereo not drawn) [Compound 262] | 80 to 100 | 80 to 100 | 80 to 100 |  |  |  | 
2 | CCN(C(=O)C(C)C)c1sc(-c2cccnc2)nc1C [Compound 233] | 80 to 100 | 80 to 100 | 80 to 100 |  |  |  | 
3 | CCN(C(=O)C(C)CS(C)(=O)=O)c1sc(-c2cccnc2)nc1C (stereo not drawn) [Compound 235] |  |  |  | A (80-100) | A (80-100) | A (80-100) | 
4 | CN(C(=O)CC[S+](C)[O-])c1sc(-c2cncc(F)c2)nc1Cl (stereo not drawn) [Compound 272] | 80 to 100 | 80 to 100 | 80 to 100 |  |  |  | 123 to 126
5 | CSCCC(=O)N(C)c1cnc(-c2cccnc2)s1 [Compound 19, N-methyl-3-methylsulfanyl-N-(2-pyridin-3-yl-thiazol-5-yl)-propionamide] | < 80 | 80 to 100 | < 80 |  |  |  | 
6 | COc1ccc(CN(C(=O)OC(C)(C)C)c2cnc(-c3cccnc3)s2)cc1 [Compound 244] | < 80 | < 80 | < 80 |  |  |  | 124 to 126
7 | CCN(C(=O)C(C)(C)CS(C)(=O)=O)c1sc(-c2cccnc2)nc1C [Compound 250] | < 80 | 80 to 100 | < 80 |  |  |  | 
8 | CN(C(=O)OC(C)(C)C)c1sc(-c2cccnc2)nc1Cl [Compound 228, (4-chloro-2-pyridin-3-yl-thiazol-5-yl)-methyl-carbamic acid tert-butyl ester] | 80 to 100 | 80 to 100 | 80 to 100 |  |  |  | 119 to 122
9 | CSC(C)CC(=O)Nc1sc(-c2cncc(F)c2)nc1C (stereo not drawn) [Compound 218] | 80 to 100 | 80 to 100 | 80 to 100 |  |  |  | 130 to 133
10 | CCN(C(=O)C(C)(C)CSC)c1sc(-c2cncc(F)c2)nc1C [Compound 255] | 80 to 100 | 80 to 100 | 80 to 100 |  |  |  | 
11 | CSCC(C)C(=O)N(C)c1sc(-c2cccnc2)nc1Cl (stereo not drawn) [Compound 227, N-(4-chloro-2-pyridin-3-yl-thiazol-5-yl)-2,N-dimethyl-3-methylsulfanyl-propionamide] | 80 to 100 | 80 to 100 | 80 to 100 |  |  |  | 
12 | CCN(C(=O)C(C)CSC)c1sc(-c2cncc(F)c2)nc1Cl (stereo not drawn) [Compound 279] | 80 to 100 | 80 to 100 | 80 to 100 |  |  |  | 
13 | CC(C[S+](C)[O-])C(=O)N(C)c1sc(-c2cccnc2)nc1Cl (stereo not drawn) [Compound 230] | 80 to 100 | 80 to 100 | 80 to 100 |  |  |  | 
14 | CCN(C(=O)C(C)C[S+](C)[O-])c1sc(-c2cccnc2)nc1C (stereo not drawn) [Compound 234] | 80 to 100 | 80 to 100 | 80 to 100 |  |  |  | 
15 | CCN(C(=O)CCSC)c1sc(-c2cncc(F)c2)nc1Cl [Compound 274] | 80 to 100 | 80 to 100 | 80 to 100 |  |  |  | 
16 | CN(C(=O)OC(C)(C)C)c1cnc(-c2cncc(F)c2)s1 [Compound 243] | 80 to 100 | 80 to 100 | 80 to 100 |  |  |  | 148 to 151
17 | C=CCSCC(C)C(=O)Nc1sc(-c2cncc(F)c2)nc1C (stereo not drawn) [Compound 226] | 80 to 100 | 80 to 100 | 80 to 100 |  |  |  | 76 to 79
18 | CN(C(=O)OC(C)(C)C)c1sc(-c2cccnc2)nc1Br [Compound 242, (4-bromo-2-pyridin-3-yl-thiazol-5-yl)-methyl-carbamic acid tert-butyl ester] | 80 to 100 | 80 to 100 | < 80 |  |  |  | 88 to 91
19 | C=CC[S+]([O-])CC(C)C(=O)Nc1sc(-c2cncc(F)c2)nc1C (stereo not drawn) [Compound 229] | < 80 | 80 to 100 | 80 to 100 |  |  |  | 170 to 174
20 | CCN(C(=O)OC(C)(C)C)c1cnc(-c2cncc(F)c2)s1 [Compound 245] | 80 to 100 | 80 to 100 | 80 to 100 |  |  |  | 89 to 92
21 | CCN(C(=O)C(C)C)c1sc(-c2cncc(F)c2)nc1C [Compound 253] | 80 to 100 | 80 to 100 | 80 to 100 |  |  |  | 
22 | CCN(C(=O)C(C)CSC)c1sc(-c2cncc(F)c2)nc1C (stereo not drawn) [Compound 240] | 80 to 100 | 80 to 100 | 80 to 100 |  |  |  | 
23 | CCN(C(=O)C(C)CSC)c1sc(-c2cccnc2)nc1C (stereo not drawn) [Compound 210] | 80 to 100 | 80 to 100 | 80 to 100 |  |  |  | 

Source: US8853246B2 (Dow AgroSciences LLC, priority 2009, dated 2014)
